From patent publication US10350273B2, “Treatment of hormonal disorders of growth” (The United States of America, as represented by the …, priority 2014, dated 2019)
“Also recorded” adds a separate entry of the source. Numbered stars: 1 amine (or outer) side, 2 acyl side, 3 side chain; on linkers, the order of the positions; unused ones are H or OH. Square brackets hold non-standard residues; d marks the D form. Side chains are listed from the residue outwards. Ends that are not written are not given here. Peptide text beside a SMILES is read from it. * marks the point of attachment. Ethylenediamine = C(CN[*:2])N[*:1]; Hyp = O=C(O)[C@@H]1C[C@@H](O)CN1; Phg = N[C@H](C(=O)O)c1ccccc1; CO = O=C([*:1])[*:2]; Bn = c1ccc(C*)cc1

Key:
somatotroph cells [1] = test: GH secretion by primary pituitary tumor cell culture of an X-LAG patient; assay type: cell-based, human; conditions: for GH change compared to control wells: overnight incubation; for effect on GH secretion (in words): X-LAG pituitary tumor cell culture, dose range; for GH response on co-incubation with GHRH: co-incubation with GHRH 10^−10M
Method: (§1) A surgical sample of the human pituitary adenoma of the patient mentioned in example 11 in Dulbecco's modified Eagle's medium (DMEM) was dissociated mechanically and enzymatically as described by Jaquet et al. (Hormonal regulation of prolactin release by human prolactinoma cells cultured in serum-free conditions. Horm Res 22 153-163, 1985). A sample of the medium in the postoperative sample was retained before further preparation. A total of 50,000 tumor cells per well were plated in 24 well plates coated with extracellular matrix from bovine endothelial corneal cells required for cell adhesion. The cells were cultured in DMEM depleted of L-Valine (D-Valine-DMEM) to block fibroblast proliferation, supplemented with 10% fetal calf serum, penicillin (100 U/ml), streptomycin (100 μg/ml), and glutamine ([…]) at 37° C. in a water-saturated atmosphere containing 7% CO2. After 48 h, culture medium was changed to D-Valine DMEM containing 1% ITS (Insulin Transferin Selenium) and 1% fetal calf serum for another 48 h. Cells were incubated with drugs at a range of concentrations (10^−12-10^−7 mol/L) for 16 h (overnight). All the experiments were performed in triplicate. The medium was collected and stored frozen for GH and PRL measurements.
(§2) The somatostatin analogs (SSAs), octreotide and pasireotide were purchased from Novartis (Basel, Switzerland), Forskolin was obtained from Sigma-Aldrich (St. Quentin Fallavier, France), Cabergoline was obtained from Pfizer (Pharmacia & Upjohn Kalamazoo, USA), MK-0677 (ghrelin analog) was obtained from Europeptide, Argenteuil France, and MSP (ghrelin receptor-GHS-R inverse agonist) came from Polypeptide Laboratories (Strasbourg, France). The GHRH receptor antagonist, acetyl-(D-Arg^2)-GHRH(1-29) amide, and GnRH1-5 were obtained from Bachem, Europe.
(§3) GH secretion by the primary culture cells was quantified using the ALPHALISA® human growth hormone GH kit (Perkin Elmer USA). Prolactin levels were measured in culture medium using a commercial IRMA kit (PRL IRMA Kit-Beckman Coulter Immunotech, Marseille, France). Human GHRH concentrations in plasma were measured using an in-house double-antibody radio-immunoassay as described previously and using a standard solution of Stimu-GH 50 μg (Ferring) and the matrix was non-used culture medium (Girard et al.; Eur. J. Clin. Pharmacol., 32, 507-513, 1987).

somatotroph cells [2] = test: Prolactin (PRL) secretion by primary pituitary tumor cell culture of an X-LAG patient; assay type: cell-based, human; conditions: for effect on prolactin secretion (in words): X-LAG pituitary tumor cell culture, dose range; for PRL change compared to control wells: overnight incubation, mean±SEM; for PRL response on co-incubation with GHRH: co-incubation with GHRH 10^−10M
Method: as §1, §2, §3

X-LAG patients = test: Clinical treatment of X-LAG patients; assay type: in vivo, human; conditions: for hormonal or growth control: X-LAG patients; for IGF-1 levels under treatment: octreotide 150 mcg sc t.i.d. together with cabergoline 0.5 mg/week, one patient
Description: Among the nine patients who underwent primary surgical resection, three had immediate GH/PRL control and excessive growth was halted. For those patients in whom growth and GH secretion were not controlled by their initial surgery, the subsequent management was complex. […] Therefore, it can be concluded that the GH receptor antagonist pegvisomant represents a useful option for IGF-1 and growth control.
The patient was a person with no family history of growth disorders. […] […] the patient began to grow excessively in terms of length and weight, exceeding the 97th percentile of their growth charts […]. […] A random level of GHRH was raised, although no potential ectopic sources were identified. […] As chronic treatment with somatostatin analogs and dopamine agonists for 12 months had no effect on the patient's excessive growth and their pituitary lesion began impinging on the optic chiasm, the patient was referred for neurosurgical treatment.

pituitary = conditions: cited from earlier work
somatotroph cells [3] = test: GH secretion by primary pituitary tumor cell culture of an X-LAG patient; assay type: cell-based, human; conditions: 10^−13 M, overnight incubation, mean±SEM
sporadic X-LAG patient = test: Dynamic pituitary hormone tests (TRH test, GnRH test) in the X-LAG patient; assay type: in vivo, human
Description: Fluctuations in elevated GHRH levels also occurred, and these were partially but not completely in phase with alterations in GH. While the elevated prolactin levels varied by less than +7% from baseline throughout the study, changes in GH levels were more marked (−23.6% to +61.5%).

cAMP production = test: cAMP assay (HTRF-cAMP Femto Kit) in cells from the tumor; assay type: cell-based, human; conditions: 10^−6M, 3 h, 37° C.
Method: Following the pharmacological co-incubation studies described in Example 13 the response of the tumor cells in terms of cAMP production was assessed. The cells from tumor were seeded into 24-well plates (4×10^4 cells/well). After 24 h in culture, the cAMP concentration was determined using the HTRF-cAMP Femto Kit (CisBio International, Bagnols-sur-Cèze, France), as described previously Cuny et al. (Mol Cell Endocrinol 355, 106-113, 2012). According to the manufacturer's protocol, the cells were detached using trypsin, seeded onto 96-well plates in suspension, and incubated at 37° C. for 3 h in the presence of forskolin. The HTRF assay reagents were then added directly into the 96-well plates.

[4] = listed as acetyl-(D-Arg^2)-GHRH(1-29)
[5] = TRH 125 μg IV or GnRH 25 μg IV, 0, 15, 30 and 90 minutes

In the case of `NCCCC[C@@H]1NC(=O)[C@@H](Cc2c[nH]c3ccccc23)NC(=O)[C@H](c2ccccc2)NC(=O)[C@@H]2C[C@@H](OC(=O)NCCN)CN2C(=O)[C@H](Cc2ccccc2)NC(=O)[C@H](Cc2ccc(OCc3ccccc3)cc2)NC1=O` [pasireotide] (cyclo([Hyp]([CO-Ethylenediamine])[Phg][dW]KY(Bn)F)), the “GH change compared to control wells” value (somatotroph cells [1]; 10^−8M, mean±SEM) is reported as −18±0.6%, the “effect on GH secretion (in words)” value (somatotroph cells [1]) is reported as “small inhibitory effect on GH secretion” and the “effect on prolactin secretion (in words)” value (somatotroph cells [2]) is reported as “no effect on prolactin secretion”.
For `C[C@@H](O)[C@@H]1NC(=O)[C@H](CCCCN)NC(=O)[C@@H](Cc2c[nH]c3ccccc23)NC(=O)[C@H](Cc2ccccc2)NC(=O)[C@@H](NC(=O)[C@H](N)Cc2ccccc2)CSSC[C@@H](C(=O)N[C@H](CO)[C@@H](C)O)NC1=O` [octreotide], the “effect on GH secretion (in words)” value (somatotroph cells [1]) was “no inhibitory effect on GH or prolactin; also recorded: no inhibition in GH secretion”, the “PRL change compared to control wells” value (somatotroph cells [2]; 10^−9M) was −26±0.03% and the “effect on prolactin secretion (in words)” value (somatotroph cells [2]) was “no inhibitory effect on GH or prolactin”. For the same compound, the “hormonal or growth control” value (X-LAG patients) was “did not lead to hormonal or growth control” and the “IGF-1 levels under treatment” value (X-LAG patients) was “remained consistently elevated”.
In the case of “Tyr-Ala-Asp-Ala-Ile-Phe-Thr-Asn-Ser-Tyr-Arg-Lys-Val-Leu-Gly-Gln-Leu-Ser-Ala-Arg-Lys-Leu-Leu-Gln-Asp-Ile-Met-Ser-Arg-NH2 [GHRH(1-29)]”, the “potency relative to native GHRH” value (pituitary) is given as at least 50%.
With “GHRH: Human GHRH (hGHRH) peptide is comprised of 44 amino acid residues (YADAIFTNSYRKVLGQLSARKLLQDIMSRQQGESNQERGARARL)” the “GH change compared to control wells” value (somatotroph cells [1]; 10^−10 M, mean±SEM) was “+41±0.4%”, the “effect on GH secretion (in words)” value (somatotroph cells [1]) was “further stimulated” and the “PRL change compared to control wells” value (somatotroph cells [2]; 10^−8M) was “+11±0.4%”. The “effect on prolactin secretion (in words)” value (somatotroph cells [2]) was “further stimulated”.
With “acetyl-(D-Arg^2)-GHRH(1-29) amide (Ac-Y[dR]DAIFTNSYRKVLGQLSARKLLQDIMSR-NH2; SMILES CC[C@H](C)[C@H](NC(=O)[C@H](C)NC(=O)[C@H](CC(=O)O)NC(=O)[C@@H](CCCNC(=N)N)NC(=O)[C@H](Cc1ccc(O)cc1)NC(C)=O)C(=O)N[C@@H](Cc1ccccc1)C(=O)N[C@H](C(=O)N[C@@H](CC(N)=O)C(=O)N[C@@H](CO)C(=O)N[C@@H](Cc1ccc(O)cc1)C(=O)N[C@@H](CCCNC(=N)N)C(=O)N[C@@H](CCCCN)C(=O)N[C@H](C(=O)N[C@@H](CC(C)C)C(=O)NCC(=O)N[C@@H](CCC(N)=O)C(=O)N[C@@H](CC(C)C)C(=O)N[C@@H](CO)C(=O)N[C@@H](C)C(=O)N[C@@H](CCCNC(=N)N)C(=O)N[C@@H](CCCCN)C(=O)N[C@@H](CC(C)C)C(=O)N[C@@H](CC(C)C)C(=O)N[C@@H](CCC(N)=O)C(=O)N[C@@H](CC(=O)O)C(=O)N[C@H](C(=O)N[C@@H](CCSC)C(=O)N[C@@H](CO)C(=O)N[C@@H](CCCNC(=N)N)C(N)=O)[C@@H](C)CC)C(C)C)[C@@H](C)O) [acetyl-(D-Arg^2)-GHRH (1-29) amide]” the “GH change compared to control wells” value (somatotroph cells [1]; 10^−11M, mean±SEM) was “+13±1.9%”, the “effect on GH secretion (in words)” value (somatotroph cells [1]) was “reduce basal and stimulated GH and prolactin secretion in a dose dependent manner” and the “GH response on co-incubation with GHRH” value (somatotroph cells [1]) was “complete abolition”. The “GH response on co-incubation with GHRH” value (somatotroph cells [1]; [4]) was “abolished the stimulatory effect of GHRH itself”, the “GH change compared to control wells” value (somatotroph cells [1]; highest GHRH-receptor antagonist dose studied) was “approximately −34±1.9%” and the “GH change compared to control wells” value (somatotroph cells [3]) was “+18±0.8%”. The “PRL change compared to control wells” value (somatotroph cells [2]; 10^−8M) was −73±0.1%, the “effect on prolactin secretion (in words)” value (somatotroph cells [2]) was “reduce basal and stimulated GH and prolactin secretion in a dose dependent manner” and the “PRL response on co-incubation with GHRH” value (somatotroph cells [2]) was “complete abolition”. The “PRL response on co-incubation with GHRH” value (somatotroph cells [2]; [4]) was “abolished the stimulatory effect of GHRH itself”.
For “GnRH: gonadotropin-releasing hormone, 25 μg IV GnRH (HRF-AYERST) (QHWSYGLRPG; not fully specified (residue 1, C-terminus); UniProt P01148 24-33, looked up)”, the “GH level after GnRH administration” value (sporadic X-LAG patient; 25 μg IV GnRH, baseline GH 212 ng/mL) was 50 ng/mL, the “GH response (in words)” value (sporadic X-LAG patient; [5]) was “suppression of GH levels at 30 mins” and the “GHRH level response (in words)” value (sporadic X-LAG patient; [5]) was “not markedly altered; also recorded: GHRH levels remained unaltered; also recorded: remained elevated throughout”. The “prolactin response (in words)” value (sporadic X-LAG patient; [5]) was “prolactin rose mildly”.
For “GnRH1-5: fragment of gonadotropin-releasing hormone, putative GPR101 agonist (QHWSY; ends and bridges not checked)”, the “GH change compared to control wells” value (somatotroph cells [1]; 10^−10 M, mean±SEM) was “+15±1.5%”, the “effect on GH secretion (in words)” value (somatotroph cells [1]) was “little effect on GH” and the “effect on prolactin secretion (in words)” value (somatotroph cells [2]) was “did not stimulate prolactin release”.
In the case of `CC(C)[C@@H]1NC(=O)[C@H](CCCCN)NC(=O)[C@@H](Cc2c[nH]c3ccccc23)NC(=O)[C@H](Cc2ccc(O)cc2)NC(=O)[C@@H](NC(=O)[C@H](N)Cc2ccc3ccccc3c2)CSSC[C@@H](C(=O)N[C@H](C(N)=O)[C@@H](C)O)NC1=O` [lanreotide], the “hormonal or growth control” value (X-LAG patients) is reported as “did not lead to hormonal or growth control”.
In the case of Ghrelin, the “effect on GH secretion (in words)” value (somatotroph cells [1]) is reported as “minor stimulatory effect on GH secretion”.
In the case of `C=C[C@@]1(C)CC(=O)[C@]2(O)[C@@]3(C)[C@@H](O)CCC(C)(C)[C@@H]3[C@H](O)[C@H](OC(C)=O)[C@@]2(C)O1` [forskolin], the “rise in cAMP production compared with controls” value (cAMP production) is reported as “+396±1.9%”.
With `C=CCN1C[C@H](C(=O)N(CCCN(C)C)C(=O)NCC)C[C@@H]2c3cccc4[nH]cc(c34)C[C@H]21` [cabergoline] the “GH change compared to control wells” value (somatotroph cells [1]; 10^−8M, mean±SEM) was −32±0.8%, the “PRL change compared to control wells” value (somatotroph cells [2]; concentration not given) was −15±0.04% and the “IGF-1 levels under treatment” value (X-LAG patients) was “remained consistently elevated”.
In the case of `CC(C)(N)C(=O)N[C@H](COCc1ccccc1)C(=O)N1CCC2(CC1)CN(S(C)(=O)=O)c1ccccc12` [MK-0677], the “GH change compared to control wells” value (somatotroph cells [1]; concentration not given, mean±SEM) is reported as “+15±0.5%” and the “effect on prolactin secretion (in words)” value (somatotroph cells [2]) is reported as “no effect on prolactin secretion”.
For pegvisomant, the “control of IGF1 (and growth)” value (X-LAG patients; postoperative use in X-LAG patients) was “control of IGF1 in all five X-LAG patients; also recorded: control of IGF1 and excessive growth in three patients”.
